pIC50: −log10 of the molar value.
Assays:
[1] = (§1) MMV: Anti-babesial activity assay. Parasite pRBCs at 1% parasitemia were cultivated in 100 ul with 96-well plates at 2.5% and 5% hematocrits. The parasites were cultivated in triplicate for 4 days without replacement of the medium for each concentration of the compound.; format: functional, Babesia bigemina
[2] = as §1; format: functional, Babesia bovis
[3] = as §1; format: functional, Babesia equi
[4] = as §1; format: functional, Babesia caballi

Structure (SMILES) | pIC50 [1] | pIC50 [2] | pIC50 [3] | pIC50 [4]
CCn1c(SCC(=O)Nc2cc(C(F)(F)F)ccc2Cl)nc2ccccc2c1=O | 5.48 | 4.60 | 4.80 | 4.83
OC(CNCc1ccccc1)Cn1c2ccccc2c2ccccc21 (centres undefined) | 4.75 | 5.49 | 5.38 | 5.41
CCN1CCN(c2c(C(=O)c3ccccc3)cnc3cc(OC)c(OC)cc23)CC1 | 5.92 | 6.07 | 4.88 | 4.80
CCOc1ccc(Nc2ccnc3cc(Cl)ccc23)cc1 | 7.17 | 7.25 | 4.80 | 5.00
COC(=O)c1ccc(Cl)c2c1C1C=CCC1C(c1cccc3ccccc13)N2 (centres undefined) | 5.00 | 4.80 | 4.75 | 4.92
COc1ccc(CN2CCCC(C(=O)c3ccc(C(F)(F)F)cc3)C2)c(O)c1 (centres undefined) | 4.70 | 6.68 | 5.41 | 4.78
COc1ccccc1N1CCN(C(CNS(=O)(=O)c2ccc(Cl)cc2)c2cccnc2)CC1 (centres undefined) | 5.67 | 6.17 | 4.76 | 4.87
CC(C)(C)CC(C)(C)NCC(O)COc1ccc2c(c1)CCC2 (centres undefined) | 6.22 | 5.00 | 5.61 | 5.17
CCN(CC)CCCNc1ccnc2cc3ccccc3cc12 | 5.89 | 5.57 | 4.80 | 4.60
CCOc1ccccc1NC(=O)CN1CCN(C(=O)c2ccco2)CC1 | 4.76 | 4.60 | 4.99 | 5.42
CCOC(=O)c1c(C)n(-c2ccccc2)c2ccc(OC(=O)c3cc(OC)c(OC)c(OC)c3)cc12 | 4.90 | 4.73 | 4.78 | 5.23
CCOc1ccc(Nc2c3ccccc3nc3ccccc23)cc1 | 7.00 | 6.14 | 5.34 | 5.12
CC1CCN(Cc2ccc(NC(=O)c3cc4ccc5cccnc5c4[nH]3)cc2)CC1 | 4.82 | 5.02 | 5.19 | 4.88
CCCn1c(=N)c(C(=O)NC2CCCCC2)cc2c(=O)n3cccc(C)c3nc21 | 4.88 | 5.24 | 5.53 | 5.22
CN1C=C(c2ccc3ccccc3n2)C(c2c[nH]c3ccccc23)c2ccccc21 (centres undefined) | 5.34 | 5.23 | 5.29 | 6.52
COc1ccccc1N1C(=N)SC(=Cc2ccc(OCc3ccccc3F)cc2)C1=O | 5.00 | 4.73 | 4.79 | 4.77

Structure (SMILES) | pIC50 [1] | pIC50 [2] | pIC50 [3] | pIC50 [4]
Oc1c2c(nc3cc(-c4ccccc4)nn13)CCCC2 | < 4.60 | 5.26 | 6.36 | 5.89
CCOc1cc2c(cc1OCC)C(c1cc(C)c(O)c(C)c1)NCC2 (centres undefined) | 4.72 | 6.00 | 5.43 | 4.68
O=C(Nc1ccc(Cl)cc1)N1CCN(c2ccc3nncn3n2)CC1 | 6.00 | 4.79 | 5.99 | 4.79
CCOC(=O)c1cnc2ccc(OC)cc2c1NCc1ccccc1 | 6.00 | 6.14 | 4.85 | 5.23
N=c1n(CCN2CCCCC2)c2ccccc2n1CC(=O)c1ccc(Cl)c(Cl)c1 | 7.18 | 7.11 | 4.80 | 5.43
Oc1c(C(Nc2ccccn2)c2cccc(Oc3ccccc3)c2)ccc2cccnc12 (centres undefined) | 5.48 | 5.17 | 4.90 | 5.00
COc1ccc(/C=C2/SC(=Nc3ccccc3)NC2=O)cc1 | 6.00 | 5.31 | 7.00 | 4.88
CC(NCc1ccccc1)c1cc(Cl)ccc1O (centres undefined) | 4.92 | 5.42 | 5.08 | 4.78
c1ccc(CNc2nc(Nc3ccccc3)nc3ccccc23)cc1 | 5.00 | 5.39 | 5.67 | 5.43
CCN(CC)CCCNc1nc(-c2ccc(Cl)cc2)nc2ccccc12 | 5.67 | 6.14 | 6.60 | 5.23
CCC(=O)Nc1nnc(Cc2ccc(OC)c(OC)c2)s1 | 5.00 | 5.89 | 4.91 | 5.33
COc1ccc(Nc2nc(NCc3ccccc3)c3ccccc3n2)cc1 | 5.67 | 7.22 | 5.32 | 5.43
COc1ccc(CNC2CCN(c3ccc(NC(=O)c4cccc(Cl)c4)cc3)CC2)cc1OC | 6.07 | 7.00 | 6.51 | 4.91
COc1ccc(Br)cc1C1Nc2ccc3ccccc3c2C2=C1C(=O)CC(c1ccccc1)C2 (centres undefined) | 4.76 | < 4.60 | < 4.60 | 4.88
Cc1ccc(S(=O)(=O)c2c(COC(=O)c3cccc(C)c3)c(-c3ccccc3)nn2C)cc1 | 6.00 | 7.17 | 4.90 | 4.69

From ChEMBL document CHEMBL3301464, “MMV Malaria Box anti-babesial screening”
